The text below walks through data of patent publication US6911549B1, “Method of preparing a taxol derivative” (priority 1992, dated 2005).

≈ marks a conversion by molar mass, not a printed value.

The test system of experiment [1] is L1210 leukemia. As to the kind of experiment: L1210 leukemia cell proliferation inhibition (Table 1, procedure of Li et al.). Conditions: drug concentration required to inhibit cell proliferation to 50% of untreated control cells; for IC50: Mus musculus, L1210, read-out: L1210 (IC50 μg/ml). It is filed as cell-based, mouse. From the text: The biological activity of the compounds of this invention has been further confirmed using well known procedures against L1210 leukemia and the results set forth in Table I. The results were obtained using standard well known procedure (Li, L. H.; Kuentzel, S. L.; Murch, L. L.; Pschigoga, L. M.; and W. C. Krueger, “Comparative biological and biochemical effects of nogalamycin and its analogs on L1210 leukemia,” Cancer Res. 39:4816-4822 (1979)). The results are expressed as an IC50 which is the drug concentration required to inhibit cell proliferation to 50% of that of untreated control cells. Lower numbers indicated greater activity.

In experiment [2] the test system is L1210 mouse leukemia carcinoma cells. Description: Cytotoxicity in L1210 mouse leukemia carcinoma cells in culture (IC90). It counts as cell-based. From the text: (§1) The biological activity of the 7-deoxy-7β,8β-methanotaxol compounds (Formula II) of the invention has been confirmed using well known procedures.
The test system of experiment [3] is A2780 (human ovarian carcinoma) cells. As to the kind of experiment: Cytotoxicity in A2780 (human ovarian carcinoma) cells in culture (IC90). It is filed as cell-based. From the text:
(§2) The biological activity of the 7-deoxy-7-halotaxol compounds (Formula III) of the invention has been confirmed using well known procedures.

The subject of experiment [4] is tubulin. Description: In vitro tubulin polymerization assay after Gaskin et al. It counts as biochemical. The following applies: in vitro at 20° C.; for induction of tubulin polymerization in vitro: compared with taxol.
Source text: as §1, §2

As to `CC(=O)OC1C(=O)C23CC2CC2OCC2(OC(C)=O)C3C(OC(=O)c2ccccc2)C2(O)CC(OC(=O)C(OC(=O)OCC(Cl)(Cl)Cl)C(NC(=O)c3ccccc3)c3ccccc3)C(C)=C1C2(C)C` (stereo not drawn) [Compound 14AA, 2′-{[(2,2,2-Trichloroethyl)oxy]carbonyl}-7-deoxy-7β,8β-methanotaxol], in experiment [1], the “L1210 (IC50 μg/ml)” value is more than 0.1 µg/mL. In the case of `CC(=O)O[C@H]1C(=O)C23C[C@@H]2CC2OC[C@@]2(OC(C)=O)C3[C@H](OC(=O)c2ccccc2)[C@]2(O)CC(OC(=O)C(OC(=O)OCC(Cl)(Cl)Cl)[C@@H](NC(=O)OC(C)(C)C)c3ccccc3)C(C)=C1C2(C)C` (stereo partly drawn) [Compound 14DA, N-Debenzoyl-N-(t-butyl)oxycarbonyl-2′-{[(2,2,2-trichloroethyl)oxy]carbonyl}-7-deoxy-7β,8β-methanotaxol], in experiment [1], the IC50 was 0.012 µg/mL (≈ 0.0119 µM). On to `CC(=O)O[C@H]1C(=O)[C@@]23CC2C[C@H]2OC[C@@]2(OC(C)=O)[C@H]3[C@H](OC(=O)c2ccccc2)[C@]2(O)C[C@H](OC(=O)[C@H](O)[C@@H](NC(=O)NC(C)(C)C)c3ccccc3)C(C)=C1C2(C)C` (stereo partly drawn) [Compound 29, N-debenzoyl-N-(t-butyl)aminocarbonyl-7-deoxy-7β,8β-methano-taxol], for which, in experiment [1], the “L1210 (IC50 μg/ml)” value stood at 0.006 µg/mL.

For `CC(=O)OC1C(=O)C2(C)C(F)CC3OCC3(OC(C)=O)C2C(OC(=O)c2ccccc2)C2(O)CC(OC(=O)C(OC(=O)OCC(Cl)(Cl)Cl)C(NC(=O)c3ccccc3)c3ccccc3)C(C)=C1C2(C)C` (stereo not shown) [Compound 13AA, 2′-{[(2,2,2-Trichloroethyl)-oxy]carbonyl}-7-deoxy-7-fluorotaxol], in experiment [1], the “L1210 (IC50 μg/ml)” value came out at 0.054 µg/mL. With `CC(=O)O[C@H]1C(=O)[C@]2(C)C(F)C[C@H]3OC[C@@]3(OC(C)=O)[C@H]2[C@H](OC(=O)c2ccccc2)[C@]2(O)C[C@H](OC(=O)[C@H](OC(=O)OCC(Cl)(Cl)Cl)[C@@H](NC(=O)OC(C)(C)C)c3ccccc3)C(C)=C1C2(C)C` (stereo partly shown) [Compound 13DA, N-Debenzoyl-N-(t-butyl)oxycarbonyl-2′-{[(2,2,2-trichloroethyl)oxy]carbonyl}-7-deoxy-7-fluorotaxol], the “L1210 (IC50 μg/ml)” value in experiment [1] turned out to be 0.015 µg/mL. Turning to `CC(=O)O[C@H]1C(=O)[C@@]2(C)C(F)C[C@H]3OC[C@@]3(OC(C)=O)[C@H]2[C@H](OC(=O)c2ccccc2)[C@]2(O)C[C@H](OC(=O)[C@H](O)[C@@H](NC(=O)NC(C)(C)C)c3ccccc3)C(C)=C1C2(C)C` (stereo partly shown) [Compound 28, N-debenzoyl-N-(t-butyl)aminocarbonyl-7-deoxy-7-fluoro-taxol], in experiment [1], the “L1210 (IC50 μg/ml)” value was 0.0055 µg/mL. As for `CC(=O)O[C@H]1C(=O)[C@@]2(C)[C@H]([C@H](OC(=O)c3ccccc3)[C@]3(O)C[C@H](OC(=O)[C@H](O)[C@@H](NC(=O)c4ccccc4)c4ccccc4)C(C)=C1C3(C)C)[C@]1(OC(C)=O)CO[C@@H]1C[C@@H]2O` [Taxol], the “L1210 (IC50 μg/ml)” value in experiment [1] came to 0.015 µg/mL. Besides, the “IC90 (90% growth inhibitory concentration)” value in experiment [2] was 0.06 micrograms/ml; in experiment [3] (A2780 (human ovarian carcinoma) cells in culture), 0.007 micrograms/ml. As for `CC(=O)OC1C(=O)C2(C)C(F)CC3OCC3(OC(C)=O)C2C(OC(=O)c2ccccc2)C2(O)CC(OC(=O)C(O)C(NC(=O)OC(C)(C)C)c3ccccc3)C(C)=C1C2(C)C` (stereo not shown) [Compound 20, N-Debenzoyl-N-(t-butyl)oxycarbonyl-7-deoxy-7-fluorotaxol], the “L1210 (IC50 μg/ml)” value in experiment [1] was 0.0038 µg/mL.

Turning to `CC(=O)O[C@H]1C(=O)[C@]23C[C@H]2C[C@H]2OC[C@@]2(OC(C)=O)[C@H]3[C@H](OC(=O)c2ccccc2)[C@]2(O)C[C@H](OC(=O)[C@H](O)[C@@H](NC(=O)OC(C)(C)C)c3ccccc3)C(C)=C1C2(C)C` [Compound 23, N-Debenzoyl-N-(t-butyl)oxycarbonyl-7-deoxy-7β,8β-methanotaxol], in experiment [1], the “L1210 (IC50 μg/ml)” value is 0.0046 µg/mL. For the compound `CC(=O)OC1C(=O)C23CC2CC2OCC2(OC(C)=O)C3C(OC(=O)c2ccccc2)C2(O)CC(OC(=O)C(O)C(NC(=O)c3ccccc3)c3ccccc3)C(C)=C1C2(C)C` (stereo not drawn) [Compound IIb, 7-Deoxy-7β,8β-methanotaxol], the “L1210 (IC50 μg/ml)” value in experiment [1] stood at 0.012 µg/mL. Also, the “IC90 (90% growth inhibitory concentration)” value in experiment [2] was found to be 0.025 micrograms/ml. Further, in experiment [4], the “induction of tubulin polymerization in vitro” value was “able to induce tubulin polymerization in vitro at 20 °C in a manner very similar to taxol”. As to `CC(=O)O[C@@]12CO[C@@H]1C[C@H](O)[C@@]1(C)C(=O)[C@H](O)C3=C(C)[C@@H](OC(=O)[C@H](O)[C@@H](NC(=O)OC(C)(C)C)c4ccccc4)C[C@@](O)([C@@H](OC(=O)c4ccccc4)[C@H]21)C3(C)C` [Taxotere, reference compound], in experiment [1], the IC50 was 0.004 µg/mL (≈ 0.00495 µM). Take `CC(=O)O[C@H]1C(=O)[C@]2(C)C(F)C[C@H]3OC[C@@]3(OC(C)=O)[C@H]2[C@H](OC(=O)c2ccccc2)[C@]2(O)CC(OC(=O)[C@H](O)[C@@H](NC(=O)c3ccccc3)c3ccccc3)C(C)=C1C2(C)C` (stereo partly shown) [Compound IIIb, 7-Deoxy-7-fluorotaxol]: the IC50 in experiment [1] is 0.01 µg/mL (≈ 0.0117 µM). In addition, in experiment [3] (Homo sapiens, A2780, read-out: IC90 (90% growth inhibitory concentration)), the IC90 came to 0.016 µg/mL (≈ 0.0187 µM). In addition, in experiment [4], the “potency relative to taxol in tubulin polymerization assay” value is “approximately half as potent as taxol” and the “induction of tubulin polymerization in vitro” value was “able to induce tubulin polymerization in vitro at 20 °C in a manner very similar to taxol”.
